# Experimental data reported in patent publication US7740463B2, “Pressurised metered dose inhalers (MDI)” (Chiesi Farmaceutici S.p.A., priority 1998, dated 2010).
# Where “and” joins values, the source holds several entries; their conditions need not be identical. Identical values can stand only once.
# Legend:
# [1] = Chemical stability of dexbudesonide HFA 134a composition of Example 4 in epoxy-phenol lacquered aluminium cans (HPLC, epimeric distribution); format: physicochemical
# Protocol: A composition containing 48 mg of dexbudesonide (200 μg/dose), 15% (w/w) ethanol, 1.3% (w/w) glycerol in HFA 134a to 12 ml can was distributed in epoxy-phenol lacquered aluminium cans and was stored at 40° C.
# [2] = Chemical stability of dexbudesonide HFA 227 compositions of Example 5 in anodised aluminium cans (HPLC, epimeric distribution); format: physicochemical; conditions: for % Residual dexbudesonide / % residual dexbudesonide relative to t = 0: HFA 227, anodised aluminium cans
# Protocol: Compositions containing 7.2, 12, 16.8 mg of dexbudesonide (corresponding to 30, 50 and 70 μg/dose respectively), ethanol, 0.9 (w/w) PEG 400 or isopropyl myristate (IPM) in HFA 227 to 12 ml can was distributed in aluminium anodised cans and was stored 70 days at 50° C.
# [3] = Fine particle dose of dexbudesonide solution compositions, Andersen Cascade Impactor; format: physicochemical; conditions: for MMAD: low volatility compound 0.9% (w/w); for FPF: Fine particle dose/Delivered dose × 100; for Delivered dose: ex actuator; for FPD: particles lower than 4.7 μm, average of 10 shots; for Metered dose: sum of delivered dose and actuator residue
# Protocol: The fine particle dose (FPD: weight of particles having an aerodynamic diameter lower than 4.7 μm) of dexbudesonide solution compositions in HFA 134a or HFA 227, prepared following the examples 4 and 5, was determined.
# The experiments were performed using the Andersen Cascade Impactor and the data obtained are average values from 10 shots.
# The FPD gives a direct measure of the mass of particles within the specified size range and is closely related to the efficacy of the product.
# [4] = Effect of different acids on chemical stability of the composition of Example 1 in epoxy-phenol resin (4) coated cans; format: physicochemical; conditions: epoxy-phenol (4) coated cans
# Protocol: The effect of different acids on the chemical stability of the composition of Example 1 was studied.
# The stability of the compositions was tested after 1, 2 and 5 months storage at 40° C. in epoxy-phenol resin (4) coated cans.
# [5] = flunisolide/ethanol/HFA compositions of WO 95/17195, Table 8 of that application; cited from earlier work
# [6] = Chemical stability of flunisolide HFA 134a composition of Example 7 in cans of different types (percent drug remaining, HPLC); format: physicochemical
# [7] = as above; format: physicochemical; remark: listed apart in the source
# Protocol: A composition containing 60 mg of flunisolide (250 μg/dose), […], 1% (w/w) glycerol in HFA 134a to 12 ml/can was distributed in anodised aluminium, glass cans or in cans having different internal coatings and were stored for 41 days at 50° C.
# [8] = metered dose 30 μg, ethanol 5% (w/w), IPM 0.9% (w/w), t = 70 days at 50° C.
# [9] = metered dose 30 μg, ethanol 5% (w/w), PEG 400 0.9% (w/w), t = 70 days at 50° C.
# [10] = metered dose 50 μg, ethanol 8% (w/w), IPM 0.9% (w/w), t = 70 days at 50° C.
# [11] = metered dose 50 μg, ethanol 8% (w/w), PEG 400 0.9% (w/w), t = 70 days at 50° C.
# [12] = metered dose 70 μg, ethanol 7% (w/w), IPM 0.9% (w/w), t = 70 days at 50° C.
# [13] = metered dose 70 μg, ethanol 7% (w/w), PEG 400 0.9% (w/w), t = 70 days at 50° C.
# [14] = HFA 134a, 60 μg/shot, ethanol 8% (w/w), IPM 0.9% (w/w)
# [15] = HFA 227, 63 μg/shot, ethanol 7% (w/w), IPM 0.9% (w/w)
# [16] = HFA 227, 63 μg/shot, ethanol 7% (w/w), PEG 400 0.9% (w/w)
# [17] = can: Anodised aluminum, t = 93 days (50° C. per title)
# [18] = can: Epoxy phenol resin (1), t = 41 days at 50° C.
# [19] = can: Epoxy phenol resin (1), t = 93 days (50° C. per title)
# [20] = can: Epoxy phenol resin (2), t = 93 days (50° C. per title)
# [21] = can: Epoxy phenol resin (3), t = 41 days at 50° C.
# [22] = can: Epoxy phenol resin (3), t = 93 days (50° C. per title)
# [23] = can: Anodised aluminum, t = 41 days at 50° C.
# [24] = can: Epoxy phenol resin (2), t = 41 days at 50° C.
smiles,measurement,setting,value
CCC[C@@H]1O[C@@H]2C[C@H]3[C@@H]4CCC5=CC(=O)C=C[C@]5(C)[C@H]4[C@@H](O)C[C@]3(C)[C@]2(C(=O)CO)O1 [dexbudesonide],percent drug remaining,"[1]; 200 μg/dose, 15% (w/w) ethanol, 1.3% (w/w) glycerol, HFA 134a, 8 months at 40° C., average of two tests",95.4%
same,epimeric distribution,"[1]; Example 4 composition, stored at 40° C.",no transfer from the 22R to the 22S epimer
same,epimeric distribution,"[2]; Example 5 compositions, anodised aluminium cans, 70 days at 50° C.",no transfer from the 22R to the 22S epimer
same,% Residual dexbudesonide,"[2]; metered dose 30 μg, ethanol 5% (w/w), IPM 0.9% (w/w), t = 0 days",98.1%
same,% Residual dexbudesonide,[2]; [8],96.8%
same,% residual dexbudesonide relative to t = 0,[2]; [8],(98.7) %
same,% Residual dexbudesonide,"[2]; metered dose 30 μg, ethanol 5% (w/w), PEG 400 0.9% (w/w), t = 0 days",95.8%
same,% Residual dexbudesonide,[2]; [9],95.8%
same,% residual dexbudesonide relative to t = 0,[2]; [9],(100) %
same,% Residual dexbudesonide,"[2]; metered dose 50 μg, ethanol 8% (w/w), IPM 0.9% (w/w), t = 0 days",98.0%
same,% Residual dexbudesonide,[2]; [10],99.4%
same,% residual dexbudesonide relative to t = 0,[2]; [10],(101) %
same,% Residual dexbudesonide,"[2]; metered dose 50 μg, ethanol 8% (w/w), PEG 400 0.9% (w/w), t = 0 days",99.0%
same,% Residual dexbudesonide,[2]; [11],98.0%
same,% residual dexbudesonide relative to t = 0,[2]; [11],(98.9) %
same,% Residual dexbudesonide,"[2]; metered dose 70 μg, ethanol 7% (w/w), IPM 0.9% (w/w), t = 0 days",100.4%
same,% Residual dexbudesonide,[2]; [12],96.3%
same,% residual dexbudesonide relative to t = 0,[2]; [12],(96.0) %
same,% Residual dexbudesonide,"[2]; metered dose 70 μg, ethanol 7% (w/w), PEG 400 0.9% (w/w), t = 0 days",95.7%
same,% Residual dexbudesonide,[2]; [13],93.75%
same,% residual dexbudesonide relative to t = 0,[2]; [13],(98.0) %
same,MMAD,"[3]; HFA 134a solution formulation, 14.4 mg/can (60 μg/shot), ethanol 8% (w/w)",2.0 μm
same,FPF,[3]; [14],73.6% and 77.4%
same,Delivered dose,[3]; [14],54.2 µg and 50.9 µg
same,FPD,[3]; [14],39.9 µg and 39.4 µg
same,Metered dose,[3]; [14],57.9 µg and 53.2 µg
same,FPF,[3]; [15],75.5%
same,Delivered dose,[3]; [15],59.7 µg
same,FPD,[3]; [15],45.0 µg
same,Metered dose,[3]; [15],63.9 µg
same,FPF,[3]; [16],78.9%
same,Delivered dose,[3]; [16],61.5 µg
same,FPD,[3]; [16],48.5 µg
same,Metered dose,[3]; [16],65.5 µg
same,MMAD,"[3]; HFA 227 solution formulation, 15.12 mg/can (63 μg/shot), ethanol 7% (w/w)",2.0 μm
CC(C)[N+]1(C)[C@@H]2CC[C@H]1CC(OC(=O)C(CO)c1ccccc1)C2.[Br-] (some centres unmarked) [ipratropium bromide],% RESIDUAL IPBr,"[4]; acid: Ascorbic, t = 0",119%
same,% RESIDUAL IPBr,"[4]; acid: Ascorbic, t = 1 month at 40° C.",113%
same,% RESIDUAL IPBr,"[4]; acid: Ascorbic, t = 2 months at 40° C.",112%
same,% RESIDUAL IPBr,"[4]; acid: Ascorbic, t = 5 months at 40° C.",110%
same,% RESIDUAL IPBr,"[4]; acid: Citric (0.07% w/w), t = 1 month at 40° C.",98%
same,% RESIDUAL IPBr,"[4]; acid: Citric (0.3% w/w), t = 2 months at 40° C.",100%
same,% RESIDUAL IPBr,"[4]; acid: Citric (0.6% w/w), t = 0",98%
same,% RESIDUAL IPBr,"[4]; acid: Citric (0.6% w/w), t = 1 month at 40° C.",98%
same,% RESIDUAL IPBr,"[4]; acid: Hydrochloric (4 μl-1 N), t = 0",101%
same,% RESIDUAL IPBr,"[4]; acid: Hydrochloric (4 μl-1 N), t = 1 month at 40° C.",100%
same,% RESIDUAL IPBr,"[4]; acid: Hydrochloric (4 μl-1 N), t = 2 months at 40° C.",104%
same,% RESIDUAL IPBr,"[4]; acid: Hydrochloric (10 μl-1 N), t = 0",101%
same,% RESIDUAL IPBr,"[4]; acid: Hydrochloric (10 μl-1 N), t = 1 month at 40° C.",98%
same,% RESIDUAL IPBr,"[4]; acid: Hydrochloric (10 μl-1 N), t = 2 months at 40° C.",98%
same,% RESIDUAL IPBr,"[4]; acid: Hydrochloric (20 μl-1 N), t = 0",100%
same,% RESIDUAL IPBr,"[4]; acid: Hydrochloric (20 μl-1 N), t = 2 months at 40° C.",98%
same,% RESIDUAL IPBr,"[4]; acid: None, t = 2 months at 40° C.",98%
CC1(C)O[C@@H]2C[C@H]3[C@@H]4C[C@H](F)C5=CC(=O)C=C[C@]5(C)[C@H]4[C@@H](O)C[C@]3(C)[C@]2(C(=O)CO)O1 [flunisolide],decomposition in containers,[5],decomposes only in plastic cans
same,% RESIDUAL FLUNISOLIDE,[6]; [17],100.7%
same,% RESIDUAL FLUNISOLIDE RELATIVE TO t = 0,[6]; [17],(99.1) %
same,% RESIDUAL FLUNISOLIDE,[6]; [18],99.2%
same,% RESIDUAL FLUNISOLIDE RELATIVE TO t = 0,[6]; [18],(101) %
same,% RESIDUAL FLUNISOLIDE,[6]; [19],101.4%
same,% RESIDUAL FLUNISOLIDE RELATIVE TO t = 0,[6]; [19],(103) %
same,% RESIDUAL FLUNISOLIDE,[6]; [20],101.9%
same,% RESIDUAL FLUNISOLIDE RELATIVE TO t = 0,[6]; [20],(100) %
same,% RESIDUAL FLUNISOLIDE,"[6]; can: Epoxy phenol resin (3), t = 0",101.7%
same,% RESIDUAL FLUNISOLIDE RELATIVE TO t = 0,[6]; [21],(97.5) %
same,% RESIDUAL FLUNISOLIDE,[6]; [22],101.2%
same,% RESIDUAL FLUNISOLIDE RELATIVE TO t = 0,[6]; [22],(99.6) %
same,% RESIDUAL FLUNISOLIDE,"[6]; can: Glass type III, t = 93 days (50° C. per title)",97.5%
same,% RESIDUAL FLUNISOLIDE,"[7]; can: Anodised aluminum, t = 0",101.6%
same,% RESIDUAL FLUNISOLIDE,[7]; [23],100.4%
same,% RESIDUAL FLUNISOLIDE RELATIVE TO t = 0,[7]; [23],(98.8) %
same,% RESIDUAL FLUNISOLIDE,"[7]; can: Epoxy phenol resin (1), t = 0",98.4%
same,% RESIDUAL FLUNISOLIDE,"[7]; can: Epoxy phenol resin (2), t = 0",101.9%
same,% RESIDUAL FLUNISOLIDE,[7]; [24],99.7%
same,% RESIDUAL FLUNISOLIDE RELATIVE TO t = 0,[7]; [24],(97.8) %
same,% RESIDUAL FLUNISOLIDE,[7]; [21],99.2%
